Measurements reported in PMC12263422, “Cryo-EM structure of the human THIK-1 K2P K^+ channel reveals a lower Y gate regulated by lipids and anesthetics” (Nature Structural & Molecular Biology, 2025).
“And” between values parts separate entries of the source, which are not always exact repeats. Equal entries are not always repeated.

Key:
[1] = target: T1, THIK-1 I139A (Homo sapiens, UniProt Q9HB14, I139A); test: Inside-out excised patch recordings, oocytes, THIK-1 I139A mutant; type: cell-based; conditions: for τ of 1 mM TPenA block / τ of 1 mM TPenA release: I139A; for Normalized currents: THIK-1 I139A
T1 construct: expressed in transfected cells; host or cells: Xenopus oocytes (mRNA injection)
T1 sequence (Q9HB14 1-408 I139A): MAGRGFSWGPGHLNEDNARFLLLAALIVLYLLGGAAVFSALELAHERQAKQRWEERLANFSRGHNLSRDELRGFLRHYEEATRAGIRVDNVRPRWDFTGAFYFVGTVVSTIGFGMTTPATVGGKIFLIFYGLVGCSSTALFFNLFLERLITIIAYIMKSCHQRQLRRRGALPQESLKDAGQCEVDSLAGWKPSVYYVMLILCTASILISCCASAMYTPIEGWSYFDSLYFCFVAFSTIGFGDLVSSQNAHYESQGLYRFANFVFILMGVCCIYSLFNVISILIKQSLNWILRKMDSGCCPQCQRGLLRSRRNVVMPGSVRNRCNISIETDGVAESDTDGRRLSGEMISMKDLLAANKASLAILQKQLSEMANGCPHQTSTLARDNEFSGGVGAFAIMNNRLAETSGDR
From the text: (§1) Human K2P13.1 THIK-1 (GenBank accession number: NM_022054) and human K2P12.1 THIK-2 (NM_022055.1) were used in this study. For functional expression studies, the respective K^+ channel subtype coding sequences were subcloned into the oocyte expression vector pSGEM or the dual-purpose expression vector pFAW[41] and verified by sequencing. All mutant channels were obtained by site-directed mutagenesis and verified by sequencing. To increase surface expression and macroscopic currents, measurements of THIK-2 channels used a mutated ER retention motif, (R11A R12A R14A R15A R16A; THIK-2*)[20]. Vector DNA was linearized with NheI or MluI, and mRNA was synthesized in vitro using the SP6 or T7 AmpliCap Max High Yield Message Maker Kit (Cellscript, USA) or HiScribe T7 ARCA mRNA Kit (New England Biolabs).
(§2) Two-electrode voltage–clamp (TEVC) studies were performed in Xenopus oocytes. All animal use conformed to the Guide for the Care and Use of Laboratory Animals (NIH Publication 85–23), and all experiments using Xenopus toads were approved by the local ethics panels. Oocytes were stored at 17 °C in ND96 recording solution composed of (in mM): 96 NaCl, 2 KCl, 1.8 CaCl2, 1 MgCl2, 5 HEPES (pH 7.5 adjusted with NaOH and HCl), supplemented with Na-pyruvate (275 mg L^–1), theophylline (90 mg L^–1) and gentamicin (50 mg L^–1). Oocytes were injected with 1 ng mRNA for WT or mutant channels, and were incubated for 24–48 h at 17 °C. Two-electrode voltage clamp recordings were then performed as previously described[42],[43]. For macroscopic patch–clamp measurements, oocytes were obtained as described above incubated at 17 °C in a solution containing (mM): 54 NaCl, 30 KCl, 2.4 NaHCO3, 0.82 MgSO4 ×7 H2O, 0.41 CaCl2, 0.33 Ca(NO3)2 ×4 H2O and 7.5 TRIS (pH 7.4 adjusted with NaOH and HCl) for 1–4 days before use. Excised patch recordings in inside-out configuration conditions were performed at room temperature. Patch pipettes were made from thick-walled borosilicate glass GB 200TF-8P (Science Products), had resistances of 0.2–0.5 MΩ (tip diameter, 10–25 µm) and filled with a pipette solution (in mM): 120 KCl, 10 HEPES and 3.6 CaCl2 (pH 7.4 adjusted with KOH and HCl). Intracellular bath solutions and compounds were applied to the cytoplasmic side of excised patches for the various K^+ channels through a gravity flow multi-barrel pipette system. The intracellular solution had the following composition (in mM): 120 KCl, 10 HEPES, 2 EGTA and 1 pyrophosphate (pH adjusted with KOH and HCl). Currents were recorded with an EPC10 amplifier (HEKA Electronics) and sampled at 10 kHz or higher, with filtering set to 3 kHz (–3 dB) or higher, as appropriate for sampling rate. For measurements of GPCR activation, whole-cell currents were recorded for THIK-1 in transiently transfected HEK-293 cells. Cells were stimulated by a ramp protocol between −100 and +60 mV (holding potential, −80 mV). The pipette solution was composed of (in mM): 140 KCl, 2 MgCl2, 1 CaCl2, 2.5 EGTA and 10 HEPES (pH 7.3 adjusted with KOH and HCl). The extracellular bath solution had the following composition (in mM): 135 NaCl, 5 KCl, 2 MgCl2, 2 CaCl2, 10 glucose and 10 HEPES pH (pH 7.3 adjusted with NaOH and HCl). Oxotremorine M (Oxo-M) was added to extracellular bath solution to obtain the final concentration. Single-channel currents were recorded with an Axopatch 200B amplifier through a Digidata 1440A digitizer (Molecular Devices). Data were filtered at 2 kHz and recorded at a 200-kHz sampling rate with the program Clampex (Molecular Devices). Pipette solution and bath solution for cell-attached recordings contained (in mM): 140 KCl, 2 MgCl2, 1 CaCl2 and 10 HEPES (pH 7.4 adjusted with KOH and HCl). For inside-out recordings, the bath solution contained (in mM): 140 KCl, 2 MgCl2, 1 CaCl2 and 10 HEPES (pH 7.2 adjusted with KOH and HCl). All experiments were conducted at room temperature. […]

[2] = target: T2, THIK-1 G331x (Homo sapiens, UniProt Q9HB14); test: Inside-out excised patch recordings, oocytes, THIK-1 truncated at CASP8 cleavage site (G331x); type: cell-based
T2 construct: expressed in transfected cells; host or cells: Xenopus oocytes (mRNA injection)
T2 sequence (Q9HB14 1-330 limits assumed): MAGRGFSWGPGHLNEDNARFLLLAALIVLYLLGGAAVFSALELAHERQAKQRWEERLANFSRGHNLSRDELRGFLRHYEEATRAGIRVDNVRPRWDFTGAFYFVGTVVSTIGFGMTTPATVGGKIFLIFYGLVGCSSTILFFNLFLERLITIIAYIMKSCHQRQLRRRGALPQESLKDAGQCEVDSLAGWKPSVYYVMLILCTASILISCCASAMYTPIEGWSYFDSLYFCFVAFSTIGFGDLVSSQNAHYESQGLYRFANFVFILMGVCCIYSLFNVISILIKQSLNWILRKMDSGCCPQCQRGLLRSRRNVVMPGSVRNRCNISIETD
From the text: as §1, §2

Q: Which “τ of 1 mM TPenA block” value ([1]; individual recordings) does the source give for `CCCCC[N+](CCCCC)(CCCCC)CCCCC` [TPenA, tetrapentylammonium] here?
A: 0.150 s and 0.087 s and 0.338 s and 0.121 s and 0.235 s and 0.061 s and 0.088 s and 0.065 s and 0.063 s and 0.057 s and 0.086 s and 0.068 s and 0.117 s and 0.145 s and 0.215 s and 0.129 s and 0.101 s and 0.147 s and 0.113 s and 0.270 s and 0.151 s and 0.198 s and 0.133 s

Q: What about the “τ of 1 mM TPenA release” value ([1]; individual recordings) of the same compound?
A: 1.320 s and 0.719 s and 0.852 s and 0.882 s and 0.634 s and 0.828 s and 0.460 s and 0.897 s and 0.583 s and 1.759 s and 0.311 s and 0.642 s and 0.558 s and 0.489 s and 0.435 s and 0.476 s and 0.409 s and 0.565 s and 0.635 s and 0.683 s and 0.647 s and 0.518 s and 0.501 s

Q: And the “τ of 1 mM TPenA block” value ([1]; mean)?
A: 0.13 s

Q: And the “τ of 1 mM TPenA release” value ([1]; mean)?
A: 0.68 s

Q: What about the Normalized currents ([1]; TPenA 0.1 µM) of the same compound?
A: 1.00

Q: What about the Normalized currents ([1]; TPenA 1 µM) of the same compound?
A: 0.93

Q: What about the Normalized currents ([1]; TPenA 4 µM) of the same compound?
A: 0.83

Q: And the Normalized currents ([1]; TPenA 15.6 µM)?
A: 0.67

Q: And the Normalized currents ([1]; TPenA 62.5 µM)?
A: 0.44

Q: And the Normalized currents ([1]; TPenA 250 µM)?
A: 0.22

Q: And the Normalized currents ([1]; TPenA 1000 µM)?
A: 0.11

Q: And the Normalized currents ([1]; TPenA 4000 µM)?
A: 0.08

Q: And the Normalized currents ([2]; 0.1 µM TPenA)?
A: 1.00

Q: What about the Normalized currents ([2]; 1 µM TPenA) of the same compound?
A: 1.00

Q: What about the Normalized currents ([2]; 10 µM TPenA) of the same compound?
A: 0.89

Q: What about the Normalized currents ([2]; 100 µM TPenA) of the same compound?
A: 0.40

Q: And the Normalized currents ([2]; 1000 µM TPenA)?
A: 0.09

Q: And the Normalized currents ([2]; 2000 µM TPenA)?
A: 0.05
